How the values were obtained:
Assay in all cases: Bliss excess, mean over the matrix (fraction); higher = more synergy
8-MG-BA (Glioblastoma) = tested on: 8-MG-BA (Glioblastoma)
Summary of the method: (§1)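 Cell lines grown in DMEM/F12 or RPMI with 10% FBS were plated in 1536-well plates and held 24 hours at 37°C, 5% CO2 before 72 hours of exposure to two-drug dose matrices, with DMSO typically at 0.2%. CellTiter-Glo 2.0 luminescence gave viability, which was converted to inhibition. Vehicle wells were set to 0 and blank wells to 1. Combination Emax is the second-highest inhibition in the matrix, and Bliss excess is the observed combination effect minus the expected EA + EB − EA·EB, where EA and EB are the single-agent effects.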

[1] = tested on: JSC-1 (B-Cell Non-Hodgkin's Lymphoma)
Summary of the method: as §1

[2] = tested on: NCI-H2141 (Small Cell Lung Carcinoma)
Summary of the method: as §1

[3] = tested on: HCC1954 (Breast Carcinoma)
Summary of the method: as §1

[4] = tested on: A3-KAW (B-Cell Non-Hodgkin's Lymphoma)
Summary of the method: as §1

[5] = tested on: CCK-81 (Colorectal Carcinoma)
Summary of the method: as §1

[6] = tested on: TT2609-C02 (Thyroid Gland Carcinoma)
Summary of the method: as §1

FU97 (Gastric Carcinoma) = tested on: FU97 (Gastric Carcinoma)
Summary of the method: as §1

[7] = tested on: SK-MG-1 (Low Grade Glioma)
Summary of the method: as §1

NY (Osteosarcoma) = tested on: NY (Osteosarcoma)
Summary of the method: as §1

[8] = tested on: VCaP (Prostate Carcinoma)
Summary of the method: as §1

[9] = tested on: TT (Thyroid Gland Carcinoma)
Summary of the method: as §1

CAS-1 (Glioblastoma) = tested on: CAS-1 (Glioblastoma)
Summary of the method: as §1

NCI-H2591 (Mesothelioma) = tested on: NCI-H2591 (Mesothelioma)
Summary of the method: as §1

U-2-OS (Osteosarcoma) = tested on: U-2-OS (Osteosarcoma)
Summary of the method: as §1

[10] = tested on: ECC10 (Gastric Carcinoma)
Summary of the method: as §1

Hs-445 (Non-Cancerous) = tested on: Hs-445 (Non-Cancerous)
Summary of the method: as §1

[11] = tested on: A549 (Lung Adenocarcinoma)
Summary of the method: as §1

[12] = tested on: MDST8 (Colorectal Carcinoma)
Summary of the method: as §1

[13] = tested on: NCI-H1581 (Non-Small Cell Lung Carcinoma)
Summary of the method: as §1

| SMILES | Bliss excess (8-MG-BA (Glioblastoma)) | Bliss excess [1] | Bliss excess [2] | Bliss excess [3] | Bliss excess [4] | Bliss excess [5] | Bliss excess [6] | Bliss excess (FU97 (Gastric Carcinoma)) | Bliss excess [7] | Bliss excess (NY (Osteosarcoma)) | Bliss excess [8] | Bliss excess [9] | Bliss excess (CAS-1 (Glioblastoma)) | Bliss excess (NCI-H2591 (Mesothelioma)) | Bliss excess (U-2-OS (Osteosarcoma)) | Bliss excess [10] | Bliss excess (Hs-445 (Non-Cancerous)) | Bliss excess [11] | Bliss excess [12] | Bliss excess [13] |
| --- | --- | --- | --- | --- | --- | --- | --- | --- | --- | --- | --- | --- | --- | --- | --- | --- | --- | --- | --- | --- |
| Cc1c2c(nn1C)CSCc1cc(n(C)n1)CSc1cc(c3ccccc3c1)OCCCc1c(C(=O)O)n(C)c3c-2c(Cl)ccc13 [AZD5991] + C[C@@H](Nc1cc(F)cc(F)c1)c1cc(C(=O)N(C)C)cc2c(=O)cc(N3CCOCC3)oc12 [AZD8186] (first compound max 1 µM, 7x7, partner max 3 µM) | 0.0956 | -0.0289 | 0.0257 | 0.031 | -0.0084 | 0.0103 | -0.0192 | 0.0594 | -0.0124 | 0.08 | -0.0086 | -0.0219 | -0.0108 | -0.0164 | -0.0073 | 0.024 | -0.0177 | 0.01 | -0.0268 | -0.0068 |
| Cc1c2c(nn1C)CSCc1cc(n(C)n1)CSc1cc(c3ccccc3c1)OCCCc1c(C(=O)O)n(C)c3c-2c(Cl)ccc13 [AZD5991] + Cc1cc2ncnn2cc1Nc1ncc2c(n1)n(C1CCOCC1)c(=O)n2C [AZD7648] (first compound max 1 µM, 7x7, partner max 10 µM) | 0.0218 | -0.0499 | -0.0101 | -0.0095 | -0.0101 | -0.0103 | -0.038 | -0.044 | -0.0349 | -0.0319 | -0.0067 | -0.0112 | -0.0723 | -0.0106 | -0.0318 | -0.0409 | -0.0109 | -0.111 | -0.0487 | -0.0026 |
| Cc1c2c(nn1C)CSCc1cc(n(C)n1)CSc1cc(c3ccccc3c1)OCCCc1c(C(=O)O)n(C)c3c-2c(Cl)ccc13 [AZD5991] + Cn1cnc2c(F)c(Nc3ccc(Br)cc3Cl)c(C(=O)NOCCO)cc21 [Selumetinib] (first compound max 1 µM, 7x7, partner max 3 µM) | 0.098 | 0.027 | 0.0056 | 0.0333 | 0.045 | 0.009 | -0.0402 | -0.0609 | 0.0044 | -0.0312 | -0.0213 | -0.0526 | -0.0036 | -0.0127 | 0.0109 | 0.0176 | 0.0106 | -0.0344 | -0.0014 | 0.0803 |
| C[C@@H]1COCCN1c1cc(C2([S@](C)(=N)=O)CC2)nc(-c2ccnc3[nH]ccc23)n1 [AZD6738] + O=C(c1cc(Cc2n[nH]c(=O)c3ccccc23)ccc1F)N1CCN(C(=O)C2CC2)CC1 [Olaparib] (first compound max 10 µM, 7x7, partner max 10 µM) | 0.0521 | -0.0254 | 0.0682 | 0.0028 | -0.0085 | -0.0049 | 0.0176 | 0.023 | 0.0121 | -0.0521 | -0.0107 | -0.0219 | 0.0743 | 0.0123 | 0.0257 | 0.0666 | -0.0067 | 0.0273 | 0.0052 | 0.0166 |
| Cc1cc2ncnn2cc1Nc1ncc2c(n1)n(C1CCOCC1)c(=O)n2C [AZD7648] + C=CCn1c(=O)c2cnc(Nc3ccc(N4CCN(C)CC4)cc3)nc2n1-c1cccc(C(C)(C)O)n1 [AZD1775] (first compound max 10 µM, partner max 1 µM) | -0.0114 | -0.0166 | -0.0515 | 0.0065 | 0.0521 | 0.0285 | -0.0218 | 0.0004 | 0.009 | -0.0547 | -0.0497 | -0.0215 | 0.0219 | 0.0043 | 0.0232 | 0.0498 | -0.0501 | -0.0718 | 0.0177 | -0.0334 |
| Cc1cc2ncnn2cc1Nc1ncc2c(n1)n(C1CCOCC1)c(=O)n2C [AZD7648] + CCN(CCO)CCCOc1ccc2c(Nc3cc(CC(=O)Nc4cccc(F)c4)[nH]n3)ncnc2c1 [AZD2811] (first compound max 10 µM, 7x7, partner max 1 µM) | 0.0664 | 0.0813 | 0.0625 | 0.0561 | 0.0762 | 0.0699 | 0.0149 | -0.0667 | 0.0477 | 0.0076 | 0.0023 | -0.0266 | 0.0895 | 0.0506 | 0.0294 | -0.047 | 0.0394 | -0.0025 | 0.0619 | 0.0122 |
| Cc1cc2ncnn2cc1Nc1ncc2c(n1)n(C1CCOCC1)c(=O)n2C [AZD7648] + CN(C)CCCOc1ccc(-c2ccc3ncc4c(c3c2)n(C2CCOCC2)c(=O)n4C)cn1 [AZD0156] (first compound max 10 µM, 7x7, partner max 1 µM) | 0.029 | 0.0412 | 0.0033 | 0.0111 | 0.162 | -0.0003 | -0.0188 | -0.0915 | 0.0047 | -0.0172 | 0.0154 | -0.0269 | -0.0246 | -0.0089 | 0.0103 | 0.0025 | -0.0388 | -0.0192 | 0.0012 | 0.0088 |
| Cc1cc2ncnn2cc1Nc1ncc2c(n1)n(C1CCOCC1)c(=O)n2C [AZD7648] + C[C@@H]1COCCN1C2=NC(=NC(=C2)C3(CC3)[S@](=N)(=O)C)C4=C5C=CNC5=NC=C4 [AZD6738] (first compound max 10 µM, 7x7, partner max 10 µM) | 0.0602 | 0.0038 | 0.0088 | 0.0568 | -0.034 | 0.0178 | -0.0004 | -0.0017 | 0.0011 | -0.0052 | 0.0437 | 0.0666 | 0.0024 | 0.04 | 0.0173 | 0.0582 | 0.001 | -0.0282 | -0.0085 | 0.0217 |
| Cc1cc2ncnn2cc1Nc1ncc2c(n1)n(C1CCOCC1)c(=O)n2C [AZD7648] + O=C(c1cc(Cc2n[nH]c(=O)c3ccccc23)ccc1F)N1CCN(C(=O)C2CC2)CC1 [Olaparib] (first compound max 10 µM, 7x7, partner max 10 µM) | -0.0184 | -0.0148 | -0.0603 | -0.045 | -0.0107 | -0.0546 | -0.0276 | -0.0879 | -0.0455 | -0.0311 | -0.0336 | -0.0702 | -0.0909 | -0.0403 | -0.0136 | -0.0305 | 0.0006 | 0.0613 | -0.043 | -0.0319 |
| NC1(C(=O)N[C@@H](CCO)c2ccc(Cl)cc2)CCN(c2ncnc3[nH]ccc23)CC1 [Capivasertib] + CC(=O)c1c(C)c2cnc(Nc3ccc(N4CCNCC4)cn3)nc2n(C2CCCC2)c1=O [Palbociclib] (first compound max 10 µM, 7x7, partner max 10 µM) | -0.0501 | -0.0107 | -0.0936 | -0.0292 | 0.0548 | -0.0025 | -0.0398 | -0.0168 | -0.0303 | -0.0134 | 0.0119 | -0.001 | -0.044 | -0.0717 | 0.0197 | -0.011 | -0.0616 | -0.103 | -0.0378 | 0.0213 |
| NC1(C(=O)N[C@@H](CCO)c2ccc(Cl)cc2)CCN(c2ncnc3[nH]ccc23)CC1 [Capivasertib] + CC(C)n1c(=O)n(C)c2cnc3cc(F)c(-c4ccc(OCCCN5CCCCC5)nc4)cc3c21 [AZD1390] (first compound max 10 µM, 7x7, partner max 0.3 µM) | -0.0557 | -0.0888 | -0.0051 | -0.056 | 0.0088 | -0.0514 | -0.0609 | -0.0099 | -0.111 | -0.0643 | -0.0389 | -0.0945 | -0.0671 | -0.0804 | -0.0453 | -0.0231 | -0.0763 | -0.0678 | -0.0327 | -0.0784 |
| NC1(C(=O)N[C@@H](CCO)c2ccc(Cl)cc2)CCN(c2ncnc3[nH]ccc23)CC1 [Capivasertib] + CCN(CCO)CCCOc1ccc2c(Nc3cc(CC(=O)Nc4cccc(F)c4)[nH]n3)ncnc2c1 [AZD2811] (first compound max 10 µM, 7x7, partner max 1 µM) | 0.0289 | 0.0082 | -0.0237 | 0.0073 | -0.0369 | 0.0065 | -0.0075 | -0.004 | 0.0626 | -0.0531 | 0.0328 | 0.002 | -0.0688 | -0.0025 | -0.001 | -0.039 | -0.0895 | -0.0365 | 0.011 | -0.11 |
| NC1(C(=O)N[C@@H](CCO)c2ccc(Cl)cc2)CCN(c2ncnc3[nH]ccc23)CC1 [Capivasertib] + COc1nnc2ccc(N3CCC(c4ccc(OCCN5CCN(C)C(=O)[C@H]5C)cc4)CC3)nn12 [AZD5153] (first compound max 10 µM, 7x7, partner max 1 µM) | -0.0338 | -0.0312 | 0.0061 | 0.0641 | -0.0363 | -0.0176 | -0.0366 | -0.0154 | 0.0477 | -0.0649 | 0.0181 | 0.0241 | 0.0268 | 0.0183 | 0.0156 | 0.0708 | -0.027 | -0.0345 | 0.105 | -0.0303 |
| NC1(C(=O)N[C@@H](CCO)c2ccc(Cl)cc2)CCN(c2ncnc3[nH]ccc23)CC1 [Capivasertib] + C[C@@H]1COCCN1C2=NC(=NC(=C2)C3(CC3)[S@](=N)(=O)C)C4=C5C=CNC5=NC=C4 [AZD6738] (first compound max 10 µM, 7x7, partner max 10 µM) | -0.004 | 0.0036 | 0.0049 | 0.0105 | -0.0165 | -0.139 | -0.0158 | -0.0176 | -0.034 | -0.0287 | -0.0179 | -0.0378 | -0.0706 | 0.0021 | -0.0326 | -0.0163 | -0.0531 | -0.0414 | -0.0277 | -0.0363 |
| NC1(C(=O)N[C@@H](CCO)c2ccc(Cl)cc2)CCN(c2ncnc3[nH]ccc23)CC1 [Capivasertib] + Cn1cnc2c(F)c(Nc3ccc(Br)cc3Cl)c(C(=O)NOCCO)cc21 [Selumetinib] (first compound max 10 µM, 7x7, partner max 10 µM) | 0.0362 | 0.0954 | -0.051 | 0.0405 | 0.0622 | 0.0753 | -0.0213 | 0.0653 | 0.0059 | -0.0161 | -0.0249 | -0.0098 | -0.0798 | -0.0052 | 0.0009 | 0.0563 | 0.0479 | 0.0052 | 0.0211 | 0.0371 |

Source: the supplement of paper PMC11061612
